Patent US5770623A, “Argine antagonists for inhibition of systemic hypotension associated with nitric oxide production or endothelial derived relaxing factor” (Board of Regents, The University of Texas System, priority 1995, dated 1998)
“Also recorded” adds a separate entry of the source.

Key:
[1] = test system: systemic hypotension mediated by interleukin-1; assay: Interleukin-1 mediated systemic hypotension; assay type: in vivo; details: after N^G-aminoarginine
untreated dogs [2] = assay: NMMA in untreated dogs (Example 5); assay type: in vivo, dog
Experimental: Administration of ET to dogs was clearly more toxic and less predictable than TNF administration. […] Within 1.5 minutes the blood pressure increased by 33±2.5 mmHg.

untreated dogs [3] = assay type: in vivo, dog
Experimental: Recombinant human TNF specific activity 2×10^7 units/mg, was from the Niposn Chemical Corporation, Tokyo, Japan. TNF was administered at a dose of 10 mcg/kg in a volume of 10 ml of phosphate buffered saline containing 2 mgs/ml of dog albumin. […] Arginine was obtained from Sigma Chemical Company, St. Louis, Mo.
Four conditioned mongrel dogs, 2 males and 2 females, weighing 28 to 30 kgs, were studied. Care of the animals were in accordance with the recommendation of the American Association for Accreditation of Laboratory Animals [DHEW(DHHS) publication no. (NIH) 78-23, revised, 1978]. On the day of the experiment, the dogs were fasted overnight. They were anesthetized with phenobarbital (10 mg/kg). They were then intubated orally with a #10 fr. endotracheal tube and ventilated with a Harvard pump ventilator at a rate of 12 breaths per minute and a tidal volume of 15 ml/kg. An arterial line was percutaneously placed in the femoral artery on the day of the experiment.
Mean (electronic) and phasic systemic arterial pressures (SAP) were continuously recorded on a Hewlett-Packard recording system (model 7758B) using strain gauge manometers (Hewlett-Packard model 1290A) which were connected to the arterial line. Heart rate (HR) was determined from an EKG tracing and continuously recorded on the Hewlett-Packard recording system. Oxyhemoglobin saturation (SaO2) was obtained using a pulse oximeter (BIOX 111, Boulder, Colo.). continuous time-series records of SAP, HR, and SaO2 were obtained using a Lab Master analog-to-digital convertor (16 channel, 12 bit, 30 kHz; Scientific Solutions, Inc.) sampling at 55 Hz and storing the 6 sec averages on a magnetic disk.
This was followed by a compensatory decrease in the HR with a return of the BP to baseline. The NMMA-induced bradycardia lasted 31 minutes. This response was not observed in animals which had been previously treated with TNF. In a subsequent experiment (FIG. 7a) the hypotensive response to TNF was especially severe, with a decrease in BP from 125 mm to 36 mmHg. […] This was associated with a decrease in the HR from 101 to 92 beats/minute. […] In a second control study nitroglycerin was infused at a rate of 28 μg/kg/minute, IV, to lower the blood pressure to the same level as that observed with tumor necrosis factor (FIG. 7c).

[4] = test system: dog coronary (CA) and femoral artery (FA); assay: ACh-induced relaxation of dog coronary and femoral artery; details: NMMA 100 μM
Experimental: (§1) Guinea pig pulmonary artery (GP PA), rat and rabbit aorta (Ao), and dog coronary (CA) and femoral artery (FA) were precontracted with NE (1 μM) and relaxed with a single concentration of ACh. Concentration of ACh: GP PA 1 μM, rat Ao […], rabbit Ao 0.3, dog CA […] and […] 0.1 μM. […] The concentrations of L-citrulline (L-cit), D-arginine (D-arg) and L-arginine (L-arg) were all 0.5 mM. Bars are mean values±SEM (n=4-6).

[5] = test system: murine endothelial cells exposed to Gamma-Interferon and TNF (nitric oxide production); details: mouse endothelial cells, immunomodulators and endotoxin; cited from earlier work
[6] = test system: bovine aortic endothelial cells (BAEC); assay: A23187-stimulated nitrite release from bovine aortic endothelial cells; assay type: cell-based; details: 3 μg/ml A23187, 4-hour, FIG. 12
Experimental: The % inhibition of relaxation is calculated from the maximum ACh-induced relaxation observed in the presence of the arginine analog relative to that in its absence. Points represent mean values±SEM (n=4-6). […] Another N^G substitution tested for inhibition of induced nitrite release had two methyl groups on one of the arginine guanidino nitrogens. Concentration-response relationships for inhibition of A23187-stimulated nitrite release by bovine aortic endothelial cells (BAEC) are shown in FIG. 9a for the N,N-disubstituted derivative in comparison with several monosubstituted derivatives. Nitrite production was measured as an indication of nitric oxide synthesis since nitric oxide spontaneously decays to nitrite. Nitrite production by BAEC in a 2-hr. period was assessed in an L-arginine-free medium alone or in the presence of the indicated concentration of arginine analogs. The points plotted represent means±S.E. of the percent inhibition of nitrite production observed in 3 individual BAEC culture wells. The key on FIG. 9a indicates the groups substituted on the guanidino nitrogens of L-arginine.
Points are mean values±SEM (n=3).

[7] = test system: mongrel dogs with TNF-induced hypotension; details: Kilbourn et al. 1990; listed as L-NMA; cited from earlier work
[8] = test system: human LAK cells against Raji target cells; assay: IL-2 mediated lymphokine activated killer cell activity in vitro; assay type: cell-based
Experimental: *% Lysis calculated from the % of release of radioactivity from ^51
Crlabeled Raji Target cells minus spontaneous release.

anesthetized guinea pig = assay: Pressor effect in the anesthetized guinea pig; assay type: in vivo; details: 1-10 mg/kg i.v. (L-NMA)
From the text: Points are mean changes in diastolic arterial pressure (±SEM; n=4-5). Control systolic and diastolic BP was 75±3 and 51±3 mm Hg, respectively.

[9] = biological target: EMT6 enzyme system (NO formation from L-arginine) (Mus musculus, UniProt P29477); assay: Arginine-dependent nitrite synthesis by cytosol of stimulated EMT6 cells; assay type: biochemical, murine; details: Lineweaver-Burke
Experimental: Thus EMT6 cytosolic preparations (i.e., cell-free solutions) were prepared and an enzyme activity was characterized which forms NO and citrulline from arginine. This reaction requires NADPH (FIG. 18 and 19) and other cofactors.
Incubation mixtures were 100 μl total volume containing: 40 μl cytosol (100,000×g supernatant), 2 mM L-arginine, 2 mM NADPH, 20 mM TRIS (pH 8.0) and a "cocktail" of protease inhibitors.
From kinetic studies an apparent Michaelis-Menton constant for L-arginine utilization by the enzyme was deduced. FIG. 20 is a Lineweaver-Burke plot for synthesis of nitrite from L-arginine by cytosol from stimulated EMT6 cells. The rate of nitrite formation was evaluated over a range of L-arginine (ARG) concentrations (from 0.03-2.0 mM) under conditions similar to that described for FIG. 18, except that incubates contained 50 μl cytosol in a total volume of 80 μl. Open and filled circles represent results obtained with each of two cytosol preparations. […] N^G -substituted arginine analogs were screened for precise quantitation of their ability to inhibit arginine-dependent NO formation by the EMT6 enzyme system.

rat aorta = assay: ACh-induced relaxation of rat aorta; details: NMMA 5 μM
Experimental: as §1

Chain of EMT6 enzyme system (NO formation from L-arginine) (P29477 whole entry): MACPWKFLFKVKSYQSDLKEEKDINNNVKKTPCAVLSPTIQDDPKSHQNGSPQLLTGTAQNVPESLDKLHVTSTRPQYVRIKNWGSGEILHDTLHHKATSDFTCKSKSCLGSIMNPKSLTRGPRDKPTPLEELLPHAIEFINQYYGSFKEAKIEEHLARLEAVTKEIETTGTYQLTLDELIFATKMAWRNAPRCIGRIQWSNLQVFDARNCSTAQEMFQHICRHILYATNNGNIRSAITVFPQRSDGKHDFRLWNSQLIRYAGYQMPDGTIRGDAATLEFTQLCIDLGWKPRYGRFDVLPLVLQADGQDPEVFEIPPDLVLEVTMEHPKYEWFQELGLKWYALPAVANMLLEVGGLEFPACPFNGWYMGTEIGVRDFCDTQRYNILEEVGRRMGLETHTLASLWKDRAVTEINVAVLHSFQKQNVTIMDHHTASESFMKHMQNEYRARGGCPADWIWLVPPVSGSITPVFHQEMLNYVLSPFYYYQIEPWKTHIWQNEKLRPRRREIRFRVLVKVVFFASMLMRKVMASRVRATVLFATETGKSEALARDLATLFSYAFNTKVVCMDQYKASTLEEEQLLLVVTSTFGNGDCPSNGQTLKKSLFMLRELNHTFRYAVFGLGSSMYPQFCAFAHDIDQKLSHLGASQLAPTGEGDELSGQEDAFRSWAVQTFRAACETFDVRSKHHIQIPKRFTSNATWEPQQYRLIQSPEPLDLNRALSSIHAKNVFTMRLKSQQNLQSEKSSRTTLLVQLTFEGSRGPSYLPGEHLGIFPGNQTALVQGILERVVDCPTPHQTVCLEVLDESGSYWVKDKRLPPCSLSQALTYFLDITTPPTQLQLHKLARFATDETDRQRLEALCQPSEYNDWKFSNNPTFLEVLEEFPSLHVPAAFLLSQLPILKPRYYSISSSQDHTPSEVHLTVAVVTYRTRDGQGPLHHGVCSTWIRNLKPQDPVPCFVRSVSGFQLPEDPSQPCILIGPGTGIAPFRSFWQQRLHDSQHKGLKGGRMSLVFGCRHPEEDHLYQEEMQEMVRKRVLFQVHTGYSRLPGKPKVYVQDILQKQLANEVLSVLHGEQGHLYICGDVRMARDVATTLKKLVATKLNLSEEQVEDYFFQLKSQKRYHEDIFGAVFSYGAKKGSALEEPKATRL

| SMILES | effect of L-arginine on the reversal [1] | increase in blood pressure by NMMA (untreated dogs [2]; normal untreated dog, compared with 20 mg/kg NMMA in lethal shock) [mm] | increase in blood pressure by NMMA (untreated dogs [2]; untreated animals) [mm Hg] | duration of NMMA-induced bradycardia (untreated dogs [3]; dog, in vivo) [min] | time to initial blood pressure increase (untreated dogs [3]; untreated dogs (n=3), NMMA alone) [min] | time within which blood pressure increased (untreated dogs [3]; untreated dogs, FIG. 7b) [min] | blood pressure increase by NMMA (untreated dogs [3]; untreated dogs, FIG. 7b, within 2 minutes) [mmHg] | HR after NMMA (untreated dogs [3]; untreated dogs, FIG. 7b, decrease from 101) [beats/minute] | inhibition of EDRF/NO in vascular preparation [4] | effect on nitrite accumulation [5] | effect on EDRF/NO (nitrite) release [6] | reversal of TNF-induced hypotension [7] | % Target Cell Lysis ([8]; [NMMA] 2.0 mM, E:T = 80:1, 40 U/ml IL2) [%] | effect on proliferation phase or lytic phase of LAK cells ([8]; exposed to IL-2, in vitro) | anti-tumor activity of IL-2 in vitro ([8]; in vitro) | effect on diastolic BP / pressor effect (words) (anesthetized guinea pig) | effect on diastolic BP / pressor effect (words) (anesthetized guinea pig; listed as L-NMA) | mode of inhibition [9] | inhibition of EDRF/NO in vascular preparation (rat aorta) |
| --- | --- | --- | --- | --- | --- | --- | --- | --- | --- | --- | --- | --- | --- | --- | --- | --- | --- | --- | --- |
| N=C(N)NCCC[C@H](N)C(=O)O [L-arginine, reference compound] | obviated this reversal | – | – | – | – | – | – | – | – | – | – | – | – | – | – | – | – | – | – |
| CNC(=N)NCCC[C@H](N)C(=O)O [NMMA, N^G -methyl-L-arginine] | – | 35 | 12 | 31 | ≤ 1.7 | ≤ 2 | 12 | 92 | arginine reversible inhibitor of EDRF/NO | blocked | inhibits EDRF/NO release | completely reversed; also recorded: substantially reversed | 75.1 ± 4.1 | did not alter | does not inhibit the anti-tumor activity | increase the resting blood pressure | sustained rise in diastolic BP | competitive inhibitor | arginine reversible inhibitor of EDRF/NO |
